ChEMBL document CHEMBL1150504, “Pharmacological evaluation of combined PGI2 agonists/thromboxane synthase inhibitors. I” (Bioorg Med Chem Lett, 1995)

Experiments:
Homo sapiens [1] = organism: Homo sapiens; experiment: PGI-2 agonistic activity by measuring inhibition of 4 uM ADP-induced human platelet aggregation; assay type: functional
Thromboxane-A synthase [2] = molecular target: T1, Thromboxane-A synthase (Homo sapiens, UniProt P24557); experiment: Inhibitory activity against Thromboxane A2 synthase in human platelet microsome
T1 sequence (P24557 whole entry): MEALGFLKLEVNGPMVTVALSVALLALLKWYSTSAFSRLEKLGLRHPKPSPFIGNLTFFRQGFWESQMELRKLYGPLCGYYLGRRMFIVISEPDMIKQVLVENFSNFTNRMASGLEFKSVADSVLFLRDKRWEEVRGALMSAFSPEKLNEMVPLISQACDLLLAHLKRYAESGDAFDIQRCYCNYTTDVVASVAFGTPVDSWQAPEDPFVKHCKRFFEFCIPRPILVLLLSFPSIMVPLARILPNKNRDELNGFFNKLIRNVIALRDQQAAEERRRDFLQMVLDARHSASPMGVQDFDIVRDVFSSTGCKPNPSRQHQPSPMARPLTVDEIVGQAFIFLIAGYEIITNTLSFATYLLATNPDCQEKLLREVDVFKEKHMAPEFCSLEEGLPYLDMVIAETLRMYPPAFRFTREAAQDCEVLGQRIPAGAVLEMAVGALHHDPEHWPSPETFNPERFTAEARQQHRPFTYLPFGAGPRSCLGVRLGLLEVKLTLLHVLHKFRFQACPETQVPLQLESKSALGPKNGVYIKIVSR

Homo sapiens [3] = organism: Homo sapiens; experiment: PGI-2 agonistic activity by measuring inhibition of 4 uM ADP-induced human platelet aggregation; Inactive; assay type: functional
Thromboxane-A synthase [4] = molecular target: T1, Thromboxane-A synthase; experiment: Inhibitory activity against Thromboxane A2 synthase in human platelet microsome; Inactive
Thromboxane-A synthase [5] = molecular target: T1, Thromboxane-A synthase; experiment: Inhibitory activity against Thromboxane A2 synthase in human platelet microsome; inactive

Row | SMILES | IC50 (Homo sapiens [1]) | also measured
1 | O=C(O)COc1cccc2c1CCC(Cn1cc(C(c3ccccc3)c3cccnc3)cn1)C2 (stereo not drawn) | 150 nM | –
2 | O=C(O)COc1cccc2c1CCCC2CCC(=O)NN(c1ccccc1)c1ccccc1 (stereo not drawn) | – | IC50 (Thromboxane-A synthase [2]): Not Active
3 | O=C(O)COc1cccc2c1CCC(Cn1cc(C(c3ccccc3)c3ccccc3)cn1)C2 (stereo not drawn) | 130 nM | IC50 (Thromboxane-A synthase [2]): Not Active
4 | C/C(=C\c1ccc(Cc2cccnc2)cc1)C(=O)[O-].[Na+] [ONO-1581] | – | IC50 (Homo sapiens [3]): Not Active
5 | O=C(O)/C=C/c1ccc(Cn2ccnc2)cc1 [OZAGREL] | – | IC50 (Homo sapiens [3]): Not Active
6 | O=C(O)COc1cccc2c1CCCC2CCON=C(c1ccccc1)c1ccccc1 (stereo not drawn) | – | IC50 (Thromboxane-A synthase [4]): Not Active
7 | O=C(O)COc1cccc2c1CCCC2CCO/N=C(\c1ccccc1)c1cccnc1 (stereo not drawn) | 240 nM | –
8 | CCC/C(CC1CCc2c(cccc2OCC(=O)O)C1)=N\OC(c1ccccc1)c1ccccc1 (stereo not drawn) [AP-227] | – | IC50 (Thromboxane-A synthase [2]): Not Active
9 | C/C(CC1CCc2c(cccc2OCC(=O)O)C1)=N\OC(c1ccccc1)c1ccncc1 (stereo not drawn) | 480 nM | –
10 | C/C(CC1CCc2c(cccc2OCC(=O)O)C1)=N\OC(c1ccccc1)c1ccccc1 (stereo not drawn) | 230 nM | IC50 (Thromboxane-A synthase [4]): Not Active
11 | CC#CCC(C)[C@H](O)/C=C/[C@@H]1[C@H]2C/C(=C/CCCC(=O)O)C[C@H]2C[C@H]1O (stereo partly drawn) [ILOPROST] | 1.4 nM | IC50 (Thromboxane-A synthase [5]): Not Active

Now from value to molecule, other results behind:

Row | IC50 (Homo sapiens [1]) | SMILES | also measured
12 | 570 nM | C/C(CC1CCc2c(cccc2OCC(=O)O)C1)=N\OC(c1ccccc1)c1ccccn1 (stereo not drawn) | –
13 | 1400 nM | C/C(CC1CCc2c(cccc2OCC(=O)O)C1)=N\OC(c1ccccc1)c1cccnc1 (stereo not drawn) | –
14 | 440 nM | O=C(O)COc1cccc2c1CCCC2CCC(=O)NN(c1ccccc1)c1cccnc1 (stereo not drawn) | –
15 | 320 nM | CCC/C(CC1CCc2c(cccc2OCC(=O)O)C1)=N\OC(c1ccccc1)c1cccnc1 (stereo not drawn) | –
